For data set [1], the target named is aggregated Aβ1-42 (Homo sapiens (Human), UniProt P05067). As to the kind of experiment: Aβ1-42 degradation assay on pre-formed aggregates, thioflavin T fluorescence (Test Example 3). The class given is biochemical. The conditions noted are these: aggregated Aβ, 1 hr at 37° C., read-out: IC50 (Aβ1-42 aggregate degradation, Table 2 head). The protocol: Aβ1-42 (Peptide Institute) was dissolved in a 0.1% NH3 solution at a concentration of 60 μM, and incubated for 24 hr at 37° C. to form the aggregation. 25 μM of the aggregated Aβ solution diluted by 100 mM phosphate buffer (pH 7.4) and the compound dilution containing 2% DMSO were mixed in equal amount. The mixtures were incubated for 1 hr at 37° C. in a black 96-well plate. After incubation, 6 μM thioflavin T (Sigma) in 100 mM of glycine-NaOH buffer, pH 8.5, was added, and fluorescence was measured for excitation at 440 nm and emission at 486 nm. The solution with DMSO only, instead of the compound solution, was used as a negative control. The activity was calculated as a percentage of the negative control.
aggregated Aβ1-42, sequence (P05067 672-713): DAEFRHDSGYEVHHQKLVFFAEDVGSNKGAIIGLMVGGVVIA

The test system of data set [2] is cerebral cortex cells of embryonic Wistar rat. As to the kind of experiment: Cytoprotection from Aβ1-42-induced cell cytotoxicity, MTT (Test Example 4). The class given is cell-based. The conditions noted are these: compound 24 hr, then 5 μM Aβ1-42 for 48 hr. On the procedure: Cytoprotection from Aβ1-42-Induced Cell Cytotoxicity
Cerebral cortex was obtained from 19-20 day-old embryonic Wistar rat. The tissue was minced, dissociated using scalpel blades and Pasteur pipette, and centrifuged at 100 rpm. Precipitated cells were filtered using […] cell strainer, and single cells were prepared. These cells were suspended in Eagle's Minimum Essential Medium (EMEM) containing 10% Fetal bovine serum, and plated into 48-well tissue culture plates (Becton Dickinson) at 200 μL/well and 1.7×10^5 cells/cm^2. Cultures were incubated at 37° C. in a humidified atmosphere of 5% CO2.
After 3, 5, and 7 days in culture, the medium was replaced.
After 9 days, compounds were dissolved in DMSO and diluted in culture media so that the final concentration of DMSO in culture media was 0.1%, and each solution was added to each well at […] for 24 hr. The control solution contained 0.1% DMSO.
After 24 hr, Aβ1-42 was dissolved in a 0.1% NH3 solution at a concentration of 500 μM and diluted in culture media to a final concentration of 5 μM, and the Aβ solution was added to each well at […] for 48 hr. After 48 hr, cultures were treated with 0.5% MTT solution (Nacalai Tesque) for 35 min. The MTT solution was replaced with 2-propanol (200 μL), and the culture plates were shook to dissolve formazan. Absorption of the solution was measured at 570 nm.

Data set [3] addresses recombinant human β-secretase (rhBACE-1) (Homo sapiens (Human), UniProt P56817). In words: β-Secretase enzyme inhibition assay (Test Example 1). As to conditions: compound solution 3 μM (FIG. 1 legend: 1.0 μM), 37° C., 2 hr, fluorescent substrate peptide. The data set is classed as biochemical. On the procedure: β-Secretase Enzyme Inhibition Assay
Compounds were dissolved in dimethylsulfoxide (DMSO), and further diluted in 0.1 M sodium acetate buffer (with 150 mM sodium chloride, pH 4.5). The solution with no compound was used as a negative control. Then, 100 μL of these solutions (compound concentration: 3 μM), 1 μL of recombinant human β-secretase (rhBACE-1, R&D), and 5 μL of the fluorescent substrate peptide were mixed in a black 96-well plate (Nunc). After mixtures were incubated in the dark at 37° C. for 2 hr, the fluorescence intensities of the mixtures were measured by fluorescence microplate reader (Wallac) at 540 nm for excitation and at 590 nm for emission. The inhibition ratio was calculated as a percentage of the negative control. The sequence of the peptide was […] and labeled with fluorescent donor (Cy3) at Ser-1 and with quencher (Cy5Q) at Lys-9, respectively (Invitrogen).

Data set [4] has as its target recombinant human BACE-1 (Homo sapiens (Human), UniProt P56817). As to the kind of experiment: Calculation of 50% inhibitory concentration (IC50) of BACE-1 (Test Example 5). As to conditions: 37° C., 2.5 hr, fluorescent substrate peptide. The class given is biochemical. The protocol:
Compounds were dissolved in 0.1 M sodium acetate buffer (with 150 mM sodium chloride, pH 4.5) to each concentration with DMSO (concentration of compounds: 0.3, 0.9, 3.0, 9.0, and 30.0). The final concentration of DMSO was 10%. The solution with no compound was used as a negative control. 15 μL of these solutions, recombinant human BACE-1 (1.0 U/ml, Invitrogen), and the fluorescent substrate peptide (2.5 nM) were mixed in a black 384-well plate (Costar). Then, mixtures were incubated in the dark at 37° C. for 2.5 hr. The fluorescence intensities of the mixtures were measured at 540 nm for excitation and at 590 nm for emission. The inhibition ratio was calculated as a percentage of the negative control. The sequence of the peptide was […] and labeled with Cy3 at Ser-1 and with Cy5Q at Lys-9. Final concentrations of compounds were as follows: […].

In data set [5] the target is Aβ1-42 (Homo sapiens (Human), UniProt P05067). In words: Aβ aggregation inhibition assay, thioflavin T fluorescence (Test Example 2). The conditions noted are these: 24 hr at 37° C. The class given is biochemical. On the procedure: Aβ3-42 aggregation Inhibition Assay
Aβ1-42, sequence (P05067 672-713): as above
Aβ1-42 was dissolved in a 0.1% NH3 solution at a concentration of 100 μM and centrifuged for 1.5 hr at 200,000 g, and the supernatant are used in the assay. […] The mixtures were incubated for 24 hr at 37° C. in a black 96-well plate.

SMILES strings stand for the structures.

recombinant human BACE-1, sequence (P56817 46-501): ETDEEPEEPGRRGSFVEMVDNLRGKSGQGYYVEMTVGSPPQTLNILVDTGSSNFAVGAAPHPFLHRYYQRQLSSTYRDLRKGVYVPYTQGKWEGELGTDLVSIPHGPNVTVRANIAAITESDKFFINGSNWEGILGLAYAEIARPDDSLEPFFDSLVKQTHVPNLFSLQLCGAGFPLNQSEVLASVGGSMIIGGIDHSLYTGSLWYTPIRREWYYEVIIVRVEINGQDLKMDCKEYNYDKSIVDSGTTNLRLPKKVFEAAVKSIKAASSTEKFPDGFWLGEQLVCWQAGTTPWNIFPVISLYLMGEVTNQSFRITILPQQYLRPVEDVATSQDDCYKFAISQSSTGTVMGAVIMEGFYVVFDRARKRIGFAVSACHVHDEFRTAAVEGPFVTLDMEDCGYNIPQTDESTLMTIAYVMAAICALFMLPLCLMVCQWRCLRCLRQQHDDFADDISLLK
recombinant human β-secretase (rhBACE-1), sequence (P56817 46-501): as above

One may read the IC50 as the point on the concentration scale where inhibition reaches its midpoint. What is called melting point is the temperature, or range, at which the solid turns liquid. Molecule `COc1cc(/C=C/C(=O)CC(=O)/C=C/c2ccc[nH]2)ccc1O` [CU022, (1E,6E)-1-(4-hydroxy-3-methoxyphenyl)-7-(1H-pyrrol-2-yl)hepta-1,6-diene-3,5-dione] came in with a melting point of 83 to 87 °C. Also, in data set [1], the IC50 is 5.3 µM.

The molecule `O=C(/C=C/c1ccc(O)cc1)CC(=O)/C=C/c1cc(O)cc(O)c1` [CU092, (1E,6E)-1-(3,5-dihydroxyphenyl)-7-(4-hydroxyphenyl)hepta-1,6-diene-3,5-dione] returned a melting point of 238 to 241 °C. Further, the “MEC, minimal effective concentration (cytoprotection)” value (shortened to “MEC, minimal effective concentration”) in data set [2] was 3.0 µM.

In the case of `O=C(/C=C/c1ccc(O)cc1)CC(=O)/C=C/c1ccc2cc[nH]c2c1` [CU189, (1E,6E)-1-(4-hydroxyphenyl)-7-(1H-indol-6-yl)hepta-1,6-diene-3,5-dione], the melting point is 238 to 243 °C. In addition, the “inhibition of BACE-1 enzyme activity (inhibitory activities (%) shown in FIG. 1)” value in data set [3] was “strongly inhibited”. Also, in data set [4], the “inhibitory effect on BACE-1 activity (IC50 shown in FIG. 2)” value (from here on “inhibitory effect on BACE-1 activity”) is “inhibitory effect on BACE-1 activity at relatively low concentration”.

Take `O=C(/C=C/c1ccc2ccn(Cc3ccccc3)c2c1)CC(=O)CCc1ccc(O)cc1` [CU520, (E)-1-(1-benzyl-1H-indol-6-yl)-7-(4-hydroxyphenyl)hept-1-ene-3,5-dione]: the melting point fell in the range of 45 to 50 °C. Also, the “inhibitory effect on BACE-1 activity” value in data set [4] was “inhibitory effect on BACE-1 activity at relatively low concentration”.

Molecule `COc1ccc(/C=C/C(=O)CC(=O)/C=C/c2cc(O)ccc2[N+](=O)[O-])cc1O` [CU133, (1E,6E)-1-(3-hydroxy-4-methoxyphenyl)-7-(5-hydroxy-2-nitrophenyl)hepta-1,6-diene-3,5-dione] returned a melting point of 107 to 111 °C. In data set [4], the “inhibitory effect on BACE-1 activity” value was “inhibitory effect on BACE-1 activity at relatively low concentration”.

The molecule `O=C(/C=C/c1ccc(O)cc1)CC(=O)/C=C/c1cc(O)ccc1Br` [CU532, (1E,6E)-1-(2-bromo-5-hydroxyphenyl)-7-(4-hydroxyphenyl)hepta-1,6-diene-3,5-dione] came in with a melting point of 182 to 186 °C. The “inhibitory effect on BACE-1 activity” value in data set [4] is “inhibitory effect on BACE-1 activity at relatively low concentration”.

Regarding `O=C(/C=C/c1ccc(O)cc1)CC(=O)/C=C/c1cc(OCc2ccccc2)ccc1[N+](=O)[O-]` [CU475, (1E,6E)-1-(5-benzyloxy-2-nitrophenyl)-7-(4-hydroxyphenyl)hepta-1,6-diene-3,5-dione], the melting point was 168 to 172 °C. For the same molecule, the “inhibitory effect on BACE-1 activity” value in data set [4] was “inhibitory effect on BACE-1 activity at relatively low concentration”.

Molecule `COc1cc(N(C)C)ccc1/C=C/C(=O)CC(=O)/C=C/c1ccc(O)cc1` [CU153, (1E,6E)-1-(4-dimethylamino-2-methoxyphenyl)-7-(4-hydroxyphenyl)hepta-1,6-diene-3,5-dione] showed a melting point of 100 to 105 °C. In data set [5], this molecule gave a half-maximal inhibitory concentration (IC50) of 0.88 µM.

For `COc1cc(/C=C/C(=O)CC(=O)/C=C/c2ccc(O)c(OC)c2)ccc1O` [curcumin, reference compound], the “MEC, minimal effective concentration” value in data set [2] was 10 µM.

Molecule `O=C(/C=C/c1ccc(O)cc1)CC(=O)/C=C/c1cccc(O)c1` [CU078, (1E,6E)-1-(3-hydroxyphenyl)-7-(4-hydroxyphenyl)hepta-1,6-diene-3,5-dione] had a melting point of 217 °C. For the same molecule, the IC50 in data set [5] was determined as 0.09 µM. Besides, the “MEC, minimal effective concentration” value in data set [2] was determined as 0.1 µM.

Molecule `COc1cc(/C=C/C(=O)CC(=O)/C=C/c2ccc(S(C)(=O)=O)cc2)ccc1O` [CU005, (1E,6E)-1-(4-hydroxy-3-methoxyphenyl)-7-(4-methanesulfonylphenyl)hepta-1,6-diene-3,5-dione] returned a melting point of 117 to 120 °C. The IC50 in data set [1] was 3.3 µM.

As to `O=C(/C=C/c1cc(O)ccc1[N+](=O)[O-])CC(=O)/C=C/c1cc(O)ccc1[N+](=O)[O-]` [CU381, (1E,6E)-1,7-bis(5-hydroxy-2-nitrophenyl)hepta-1,6-diene-3,5-dione], the melting point was 253 to 262 °C. Further, the “inhibitory effect on BACE-1 activity” value in data set [4] is given as “inhibitory effect on BACE-1 activity at relatively low concentration”.

`O=C(/C=C/c1ccc(O)cc1)CC(=O)/C=C/c1cc(O)ccc1[N+](=O)[O-]` [CU131, (1E,6E)-1-(4-hydroxyphenyl)-7-(5-hydroxy-2-nitrophenyl)hepta-1,6-diene-3,5-dione] showed a melting point of 187 to 194 °C. The “inhibitory effect on BACE-1 activity” value in data set [4] is reported as “inhibitory effect on BACE-1 activity at relatively low concentration”.

The molecule `Cc1ccc(/C=C/C(=O)CC(=O)/C=C/c2ccc(O)cc2)cc1C` [CU056, (1E,6E)-1-(3,4-dimethylphenyl)-7-(4-hydroxyphenyl)hepta-1,6-diene-3,5-dione] yielded a melting point of 150 to 152 °C. In addition, in data set [5], the IC50 turned out to be 0.28 µM.

Consider `COc1ccc(O)cc1/C=C/C(=O)CC(=O)/C=C/c1ccc(O)cc1` [CU177, (1E,6E)-1-(4-hydroxyphenyl)-7-(5-hydroxy-2-methoxyphenyl)hepta-1,6-diene-3,5-dione], for which the melting point lay in the range of 183 to 186 °C. The half-maximal inhibitory concentration (IC50) in data set [5] amounted to 1.1 µM.

For the molecule `COc1cc(/C=C/C(=O)CC(=O)/C=C/c2ccc(N(C)C)c3ccccc23)ccc1O` [CU019, (1E,6E)-1-(4-dimethylaminonaphthalen-1-yl)-7-(4-hydroxy-3-methoxyphenyl)hepta-1,6-diene-3,5-dione], the IC50 in data set [1] was 0.4 µM.

`O=C(/C=C/c1ccc(O)cc1)CC(=O)/C=C/c1ccccc1O` [CU080, (1E,6E)-1-(2-hydroxyphenyl)-7-(4-hydroxyphenyl)hepta-1,6-diene-3,5-dione]: the “MEC, minimal effective concentration” value in data set [2] was found to be 1.0 µM.
